Results as given in PubChem BioAssay (NCI).
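Each compound was tested at five concentrations against cells in 96-well plates for 48 hours. The concentration for 50% growth inhibition is given as GI50. At the TGI there is no net growth.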

Tests used:
Assay in all cases: NCI anticancer screen, dose series, 48 h
786-0 renal = system: 786-0 renal
M14 melanoma = system: M14 melanoma
NCI-H226 lung = system: NCI-H226 lung
NCI-H460 lung = system: NCI-H460 lung
OVCAR-8 ovarian = system: OVCAR-8 ovarian
SF-268 CNS = system: SF-268 CNS
SK-MEL-28 melanoma = system: SK-MEL-28 melanoma
SW-620 colon = system: SW-620 colon
MCF7 breast = system: MCF7 breast
MDA-MB-231 breast = system: MDA-MB-231 breast

SMILES | TGI (786-0 renal) | TGI (M14 melanoma) | TGI (NCI-H226 lung) | TGI (NCI-H460 lung) | TGI (OVCAR-8 ovarian) | TGI (SF-268 CNS) | TGI (SK-MEL-28 melanoma) | TGI (SW-620 colon) | GI50 (786-0 renal) | GI50 (M14 melanoma) | GI50 (MCF7 breast) | TGI (MCF7 breast) | GI50 (MDA-MB-231 breast) | TGI (MDA-MB-231 breast) | GI50 (NCI-H226 lung) | GI50 (NCI-H460 lung) | GI50 (OVCAR-8 ovarian) | GI50 (SF-268 CNS) | GI50 (SW-620 colon) | GI50 (SK-MEL-28 melanoma)
CC1CC[C@]2(C(=O)O)CCC3(C)C(=CC(=O)C4[C@@]5(C)CCC(=O)C(C)(C)C5CC[C@]43C)[C@@H]2[C@H]1C (some centres not stated) | > 100 µM | > 100 µM | 92.6 µM | > 100 µM | > 100 µM | > 100 µM | 42.9 µM | > 100 µM | – | – | – | – | – | – | – | – | – | – | – | –
C[C@@]12CC=C3c4nc(Nc5cccc(O)c5)sc4CC[C@]3(C)[C@H]1CC[C@]1(C)C(=O)CC[C@@H]21 | 4.91 µM | > 100 µM | 8.94 µM | 7.25 µM | 26 µM | 7.12 µM | – | 4.82 µM | 1.55 µM | 2.97 µM | 1.85 µM | 4.43 µM | 3 µM | 15 µM | 2.86 µM | 2.66 µM | 3.55 µM | 2.1 µM | 2.13 µM | –
O=C(Cc1ccccc1)NN1C(=O)C(Cl)C1c1cc(Br)ccc1O (configuration not stated) | > 100 µM | 19 µM | 69.7 µM | > 100 µM | 69.2 µM | 50 µM | > 100 µM | > 100 µM | – | – | – | – | – | – | – | – | – | – | – | –
C=C1C(=O)O[C@H]2[C@H]1CC/C(COC(=O)C(=O)c1cn(Cc3ccccc3)c3ccccc13)=C\CC[C@@]1(C)O[C@@H]21 | 4.03 µM | 4.13 µM | – | 12.2 µM | 11.4 µM | 6.3 µM | 4.98 µM | 7.77 µM | 1.93 µM | 1.78 µM | 1.19 µM | 3.06 µM | 2.17 µM | 5.01 µM | – | 2.84 µM | 3.04 µM | 2.16 µM | 2.33 µM | 2.08 µM
CCOC(=O)C1=C(C)N(NC(=O)Nc2ccccc2)C(=O)C1=P(c1ccccc1)(c1ccccc1)c1ccccc1 | > 100 µM | > 100 µM | > 100 µM | > 100 µM | > 100 µM | > 100 µM | – | > 100 µM | – | – | – | – | – | – | – | – | – | – | – | –
COc1cc(C(C)O)c[n+](CCc2c[nH]c3ccccc23)c1 (configuration not stated) | > 100 µM | > 100 µM | – | > 100 µM | > 100 µM | > 100 µM | – | > 100 µM | – | – | – | – | – | – | – | – | – | – | – | –
CC(=O)[O-].CCN(CC)c1ccc(C=NCCN=Cc2ccc(N(CC)CC)cc2[O-])c([O-])c1.[Mn+3] | > 100 µM | 35.5 µM | > 100 µM | 43.5 µM | 57 µM | 52.7 µM | 37.8 µM | 66.4 µM | 38.7 µM | 19.2 µM | – | – | – | – | 64.4 µM | 21.3 µM | 24.5 µM | 23.8 µM | 27.4 µM | 19.2 µM
C1=CC2SSSC2C1 (configuration not stated) | > 100 µM | > 100 µM | > 100 µM | > 100 µM | > 100 µM | > 100 µM | > 100 µM | > 100 µM | – | – | – | – | – | – | – | – | – | – | – | –
Clc1nc(Cl)c(Cl)c(-c2ccccc2)n1 | 7.45 µM | 3.72 µM | 65.4 µM | > 100 µM | > 100 µM | 61.6 µM | 32.8 µM | 5.62 µM | – | – | – | 48.7 µM | – | – | – | – | – | – | – | –
C[C@@H]1CC(=O)C2CCCC1C2=O (some centres not stated) | > 100 µM | > 100 µM | > 100 µM | > 100 µM | > 100 µM | > 100 µM | > 100 µM | > 100 µM | – | – | – | – | – | – | – | – | – | – | – | –
NCCCCN(CCCN)/[N+]([O-])=N\O | > 100 µM | > 100 µM | > 100 µM | > 100 µM | > 100 µM | > 100 µM | > 100 µM | > 100 µM | – | – | – | – | – | – | – | – | – | – | – | –
CC(C)C(Nc1c2ccccc2nc2ccccc12)C(=O)O (configuration not stated) | > 100 µM | > 100 µM | > 100 µM | > 100 µM | > 100 µM | > 100 µM | > 100 µM | > 100 µM | – | – | – | – | – | – | – | – | – | – | – | –
CN1C(=O)c2cccc3cc([N+](=O)[O-])cc(c23)C1=O | > 10 µM | > 10 µM | – | – | > 10 µM | > 10 µM | > 10 µM | > 10 µM | – | – | – | > 10 µM | – | > 10 µM | – | – | – | – | – | –
Nn1c(=O)n(Cc2ccccc2)n(-c2ccccc2)c1=O | > 100 µM | > 100 µM | > 100 µM | > 100 µM | > 100 µM | > 100 µM | > 100 µM | > 100 µM | – | – | – | – | – | – | – | – | – | – | – | –
O=C1CCN2C(=O)CCN12 | > 100 µM | > 100 µM | > 100 µM | > 100 µM | > 100 µM | > 100 µM | > 100 µM | > 100 µM | – | – | – | – | – | – | – | – | – | – | – | –
COC(C(O)CO)C(O)C(O)C(=O)NNc1ccccc1 (configuration not stated) | > 100 µM | > 100 µM | – | > 100 µM | > 100 µM | > 100 µM | > 100 µM | > 100 µM | – | – | – | > 100 µM | – | > 100 µM | – | – | – | – | – | –
COc1cc(C=C2C(=O)NC(=O)NC2=O)cc(OC)c1OC | > 100 µM | > 100 µM | > 100 µM | > 100 µM | > 100 µM | > 100 µM | > 100 µM | > 100 µM | – | – | – | – | – | – | – | – | – | – | – | –
COc1ccccc1CNCCCN1C(=O)c2ccc3c4c(ccc(c24)C1=O)C(=O)N(CCCOCCCCOCCCN)C3=O | 3.84 µM | 4.82 µM | 3.02 µM | 2.17 µM | 2.08 µM | 3.63 µM | 3.05 µM | 1.54 µM | 1.53 µM | 1.42 µM | – | – | 1.08 µM | 4.14 µM | 1.56 µM | 0.597 µM | 0.473 µM | 1.42 µM | 0.357 µM | 1.59 µM
CC1(C)C(=O)N(CCCCCCN2C(=O)C(C)(C)c3ccccc32)c2ccccc21 | 40.8 µM | 87.4 µM | 87.2 µM | > 100 µM | > 100 µM | > 100 µM | > 100 µM | 30.3 µM | – | – | – | – | – | – | – | – | – | – | – | –
CCOC(=O)CC1(C(=O)OCC)c2[nH]c3ccccc3c2CCN1Cc1ccccc1 (configuration not stated) | 31.8 µM | 35.8 µM | 35.5 µM | 42.6 µM | 78.7 µM | 37.7 µM | 39.4 µM | > 100 µM | – | – | – | – | – | – | – | – | – | – | – | –
